Columns and labels:
Type in all cases: in vivo
human patients [1] = experiment: Human study: change in adiponectin; set-up: Change in Adiponectin from Baseline, Mean / Change in Adiponectin from Baseline, Median / Change in Adiponectin from Baseline, Max: unit not given here; conditions: for Change in Adiponectin from Baseline, Max / Change in Adiponectin from Baseline, Mean / Change in Adiponectin from Baseline, Median / Change in Adiponectin from Baseline, Min: 3 months
Description: (§1) The effects of BAFACs on disorders associated with Fatty liver, insulin resistance and altered glucose metabolism were tested on 60 human patients. Experiments were subdivided to 2 dosage regimens: Aramchol 300 mg daily (high dose) and 100 mg daily (low dose) respectively for a total period time of 3 months. The Aramchol:placebo ratio is of 2:1 for the low dose arm, and 1:1 for the high dose arms.
(§2) The study period included a 3 month treatment period with Aramchol low dose, or Aramchol high dose, or placebo, and a one month follow-up period. Aramchol was given daily orally. During the treatment period, all patients attended periodic […] (at first month) and subsequently monthly study-center visits in order to assess safety and efficacy of the treatment.
(§3) The results are shown using two known in the art principle statistical evaluation on, Intention-To-Treat (ITT) and Per Protocol (PP) populations. The ITT principle asserts that the effect of a treatment policy can be best assessed by evaluation on the basis of the intention to treat a subject (i.e. the planned treatment regimen) rather than the actual treatment given. It has the consequence that subjects allocated to a treatment group should be followed up, assessed and analyzed as members of that group irrespective of their compliance to the planned course of treatment. […] Compliance covers such considerations as exposure to treatment, availability of measurements and absence of major protocol violations.

human patients [2] = experiment: Human study: change in weight; set-up: Change in Weight, Mean / Change in Weight, Median / Change in Weight, Max: unit not given here; conditions: for Change in Weight, Max / Change in Weight, Mean / Change in Weight, Median / Change in Weight, Min: 3 months
Description: as §1, §2, §3

Inbred C57J/L mice = experiment: Liver lipid/protein ratio, mice on high fat lithogenic diet; conditions: BAFAC 150 mg/Kg daily by gavage, 5 weeks
Description: Inbred C57J/L mice, 4 weeks old and weighing approx. 20 gm (Jackson Lab. Maine, USA) were used. They were fed for 5 weeks a high fat lithogenic diet consisting of: Cholesterol 1%, Cholic Acid 0.5%, lard 10%, butter 6%, palmitic acid 1.2% and corn oil 2% added (w/w) to their regular diet. In addition to the diet the animals were given daily, by gavage, either a BAFAC (150 mg/Kg) suspended in saline or an equal volume of saline only. The BAFACs were conjugates of cholic acid (at position 3) with either Palmitic Acid (C-16) or Arachidic Acid (C-20) or Behenic Acid (C-22) using an amide bond. The controls (n=5) received saline, the test animals received either the C-16 conjugate (n=5), the C-20 conjugate (n=5) or the C-22 conjugate (n=3). After 5 weeks, following an overnight fast, the animals were anesthetized using ketamine, the liver was removed, and the animals were sacrificed by ketamine overdose. A 0.5 gm sample of liver was homogenized in 5 ml of buffered saline. Liver lipids were extracted from the homogenate by the Folch method using chloroform:methanol (2:1, vol/vol). Half a ml of the homogenate were extracted in 5 ml of the Folch solution. After evaporation of the solvent the lipids were weighed and reevaporated several times until constant weight was obtained. The proteins were quantified in another aliquot of the homogenate according to the method of Bradford. (Bradford M. M., Annal Biochem. 1976, 72:248).
The lipid protein ratio (mg/mg) was calculated. The results for each group are given as means (+St. Dev.) The group values were: […]

human patients [3] = experiment: Human study: change in glucose; set-up: Change from Baseline in Glucose, Mean / Change from Baseline in Glucose, Median / Change from Baseline in Glucose, Max: unit not given here
Description: as §1, §2, §3

[4] = Aramchol 100 mg/d, Visit 3, ITT
[5] = Aramchol 100 mg/d, Visit 4, ITT
[6] = Aramchol 100 mg/d, Visit 5, ITT
[7] = Aramchol 100 mg/d, Visit 6, ITT
[8] = Aramchol 100 mg/d, Visit 7, ITT
[9] = Aramchol 300 mg/d, Visit 3, ITT
[10] = Aramchol 300 mg/d, Visit 4, ITT
[11] = Aramchol 300 mg/d, Visit 5, ITT
[12] = Aramchol 300 mg/d, Visit 6, ITT
[13] = Aramchol 300 mg/d, Visit 7, ITT

SMILES: CCCCCCCCCCCCCCCCCCCC(=O)N[C@H]1CC[C@@]2(C)[C@@H](C1)C[C@@H](O)[C@@H]1[C@@H]2C[C@H](O)[C@]2(C)[C@@H]([C@H](C)CCC(=O)O)CC[C@@H]12 [Aramchol, 3β-arachidylamido-7α,12α-dihydroxy-5β-cholan-24-oic acid]
- Change in Adiponectin from Baseline, Max (human patients [1]; Aramchol 100 mg/d oral, ITT): 11.1
- Change in Adiponectin from Baseline, Mean (human patients [1]; Aramchol 100 mg/d oral, ITT): −3.4
- Change in Adiponectin from Baseline, Median (human patients [1]; Aramchol 100 mg/d oral, ITT): −2.7
- Change in Adiponectin from Baseline, Min (human patients [1]; Aramchol 100 mg/d oral, ITT): −46.3
- Change in Adiponectin from Baseline, Max (human patients [1]; Aramchol 100 mg/d oral, PP): 11.1
- Change in Adiponectin from Baseline, Mean (human patients [1]; Aramchol 100 mg/d oral, PP): −3.4
- Change in Adiponectin from Baseline, Median (human patients [1]; Aramchol 100 mg/d oral, PP): −2.3
- Change in Adiponectin from Baseline, Min (human patients [1]; Aramchol 100 mg/d oral, PP): −46.3
- Change in Adiponectin from Baseline, Max (human patients [1]; Aramchol 300 mg/d oral, ITT): 41.7
- Change in Adiponectin from Baseline, Mean (human patients [1]; Aramchol 300 mg/d oral, ITT): 1.8
- Change in Adiponectin from Baseline, Median (human patients [1]; Aramchol 300 mg/d oral, ITT): −1.3
- Change in Adiponectin from Baseline, Min (human patients [1]; Aramchol 300 mg/d oral, ITT): −28.0
- Change in Adiponectin from Baseline, Max (human patients [1]; Aramchol 300 mg/d oral, PP): 41.7
- Change in Adiponectin from Baseline, Mean (human patients [1]; Aramchol 300 mg/d oral, PP): 1.8
- Change in Adiponectin from Baseline, Median (human patients [1]; Aramchol 300 mg/d oral, PP): −1.3
- Change in Adiponectin from Baseline, Min (human patients [1]; Aramchol 300 mg/d oral, PP): −28.0
- levels of adiponectin (in words) (human patients [1]; Aramchol 300 mg/d, tested subjects, Tables 5 and 6): increases the levels of adiponectin
- Change in Weight, Max (human patients [2]; Aramchol 100 mg/d oral, ITT): 4.00
- Change in Weight, Mean (human patients [2]; Aramchol 100 mg/d oral, ITT): 0.18
- Change in Weight, Median (human patients [2]; Aramchol 100 mg/d oral, ITT): 0.00
- Change in Weight, Min (human patients [2]; Aramchol 100 mg/d oral, ITT): −5.00
- Change in Weight, Max (human patients [2]; Aramchol 100 mg/d oral, PP): 4.00
- Change in Weight, Mean (human patients [2]; Aramchol 100 mg/d oral, PP): 0.08
- Change in Weight, Median (human patients [2]; Aramchol 100 mg/d oral, PP): 0.00
- Change in Weight, Min (human patients [2]; Aramchol 100 mg/d oral, PP): −5.00
- Change in Weight, Max (human patients [2]; Aramchol 300 mg/d oral, ITT): 3.50
- Change in Weight, Mean (human patients [2]; Aramchol 300 mg/d oral, ITT): −1.15
- Change in Weight, Median (human patients [2]; Aramchol 300 mg/d oral, ITT): −1.25
- Change in Weight, Min (human patients [2]; Aramchol 300 mg/d oral, ITT): −4.40
- Change in Weight, Max (human patients [2]; Aramchol 300 mg/d oral, PP): 3.50
- Change in Weight, Mean (human patients [2]; Aramchol 300 mg/d oral, PP): −1.15
- Change in Weight, Median (human patients [2]; Aramchol 300 mg/d oral, PP): −1.25
- Change in Weight, Min (human patients [2]; Aramchol 300 mg/d oral, PP): −4.40
- body weight (in words) (human patients [2]; Aramchol 300 mg/d, tested subjects, Tables 9 and 10): reduces body weight
- lipid protein ratio in liver, mean (+St. Dev.) (Inbred C57J/L mice): 1.44 ± 1.18 mg/mg
- Change from Baseline in Glucose, Max (human patients [3]; [4]): 17.0
- Change from Baseline in Glucose, Mean (human patients [3]; [4]): −2.0
- Change from Baseline in Glucose, Median (human patients [3]; [4]): 0.0
- Change from Baseline in Glucose, Min (human patients [3]; [4]): −38.0
- Change from Baseline in Glucose, Max (human patients [3]; [5]): 16.0
- Change from Baseline in Glucose, Mean (human patients [3]; [5]): −2.2
- Change from Baseline in Glucose, Median (human patients [3]; [5]): 1.0
- Change from Baseline in Glucose, Min (human patients [3]; [5]): −33.0
- Change from Baseline in Glucose, Max (human patients [3]; [6]): 21.0
- Change from Baseline in Glucose, Mean (human patients [3]; [6]): −1.0
- Change from Baseline in Glucose, Median (human patients [3]; [6]): 0.5
- Change from Baseline in Glucose, Min (human patients [3]; [6]): −30.0
- Change from Baseline in Glucose, Max (human patients [3]; [7]): 39.0
- Change from Baseline in Glucose, Mean (human patients [3]; [7]): −1.1
- Change from Baseline in Glucose, Median (human patients [3]; [7]): −2.0
- Change from Baseline in Glucose, Min (human patients [3]; [7]): −32.0
- Change from Baseline in Glucose, Max (human patients [3]; [8]): 23.0
- Change from Baseline in Glucose, Mean (human patients [3]; [8]): 0.8
- Change from Baseline in Glucose, Median (human patients [3]; [8]): −1.0
- Change from Baseline in Glucose, Min (human patients [3]; [8]): −41.0
- Change from Baseline in Glucose, Max (human patients [3]; [9]): 19.0
- Change from Baseline in Glucose, Mean (human patients [3]; [9]): −1.3
- Change from Baseline in Glucose, Median (human patients [3]; [9]): 1.0
- Change from Baseline in Glucose, Min (human patients [3]; [9]): −32.0
- Change from Baseline in Glucose, Max (human patients [3]; [10]): 16.0
- Change from Baseline in Glucose, Mean (human patients [3]; [10]): −2.4
- Change from Baseline in Glucose, Median (human patients [3]; [10]): −1.5
- Change from Baseline in Glucose, Min (human patients [3]; [10]): −24.0
- Change from Baseline in Glucose, Max (human patients [3]; [11]): 18.0
- Change from Baseline in Glucose, Mean (human patients [3]; [11]): −3.3
- Change from Baseline in Glucose, Median (human patients [3]; [11]): −5.0
- Change from Baseline in Glucose, Min (human patients [3]; [11]): −46.0
- Change from Baseline in Glucose, Max (human patients [3]; [12]): 13.0
- Change from Baseline in Glucose, Mean (human patients [3]; [12]): −2.0
- Change from Baseline in Glucose, Median (human patients [3]; [12]): −2.5
- Change from Baseline in Glucose, Min (human patients [3]; [12]): −22.0
- Change from Baseline in Glucose, Max (human patients [3]; [13]): 82.0
- Change from Baseline in Glucose, Mean (human patients [3]; [13]): 3.8
- Change from Baseline in Glucose, Median (human patients [3]; [13]): 3.0
- Change from Baseline in Glucose, Min (human patients [3]; [13]): −22.0
- glucose levels (in words) (human patients [3]; Aramchol 300 mg/d, tested subjects, Table 7): remarkably reduces glucose levels
